Measurements as given in publication PMC10493609 (Frontiers in Immunology, 2023).
pKd: −log10 of the molar value.

Target: T1, Galectin-3 (Gal-3) (Homo sapiens, UniProt P17931)
T1 construct: gene LGALS3; Human recombinant Gal-3
Assay: SPR kinetic analysis (Biacore)
Assay type: binding

T1 sequence (P17931 2-250): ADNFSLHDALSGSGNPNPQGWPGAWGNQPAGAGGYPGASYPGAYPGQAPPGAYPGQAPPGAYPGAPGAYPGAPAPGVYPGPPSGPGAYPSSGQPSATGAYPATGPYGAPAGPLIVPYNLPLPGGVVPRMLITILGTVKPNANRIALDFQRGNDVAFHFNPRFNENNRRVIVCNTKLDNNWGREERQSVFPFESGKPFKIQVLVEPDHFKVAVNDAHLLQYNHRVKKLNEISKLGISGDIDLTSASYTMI

GB1211
pKd: 7.63
